For 15 compounds, T/C results are on record in PubChem BioAssay AID248 (DTP/NCI, 2004).

The test system of this assay is L1210 leukemia ip in BDF1 mice, survival T/C. Kind of assay: NCI In Vivo Anticancer Drug Screen. Data for tumor model L1210 Leukemia (intraperitoneal) in B6D2F1 (BDF1) mice. The conditions noted are these: higher = longer survival. In short, it runs like this:
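Tumor was transplanted into mice, which were then dosed with test compound or vehicle alone. Survival was recorded for each group, and the treated figure was expressed relative to the control figure.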

[1] abbreviates: endpoint: mean survival time, dose: 100.0 mg/kg/injection, schedule: Q01DX009 (ip), vehicle: Klucel (hydroxypropylcellulose) (HPC).
Where [2] appears, read: endpoint: mean survival time, dose: 100.0 mg/kg/injection, schedule: Q04DX003 (ip), vehicle: Klucel (hydroxypropylcellulose) (HPC).
The mark [3] stands for this setting: endpoint: mean survival time, dose: 200.0 mg/kg/injection, schedule: Q01DX009 (ip), vehicle: Klucel (hydroxypropylcellulose) (HPC).
Where [4] appears, read: endpoint: mean survival time, dose: 200.0 mg/kg/injection, schedule: Q04DX003 (ip), vehicle: Klucel (hydroxypropylcellulose) (HPC).
Where [5] appears, read: endpoint: mean survival time, dose: 400.0 mg/kg/injection, schedule: Q04DX003 (ip), vehicle: Klucel (hydroxypropylcellulose) (HPC).
Setting [6] is: endpoint: mean survival time, dose: 50.0 mg/kg/injection, schedule: Q01DX001 (ip), vehicle: saline.
Where [7] appears, read: endpoint: mean survival time, dose: 100.0 mg/kg/injection, schedule: Q01DX001 (ip), vehicle: saline.
The mark [8] stands for this setting: endpoint: mean survival time, dose: 200.0 mg/kg/injection, schedule: Q01DX001 (ip), vehicle: saline.
Setting [9] is: endpoint: mean survival time, dose: 400.0 mg/kg/injection, schedule: Q01DX001 (ip), vehicle: saline.
[10] abbreviates: endpoint: mean survival time, dose: 100.0 mg/kg/injection, schedule: Q01DX009 (ip), vehicle: saline with Tween-80.
The mark [11] stands for this setting: endpoint: mean survival time, dose: 200.0 mg/kg/injection, schedule: Q01DX009 (ip), vehicle: saline with Tween-80.
[12] abbreviates: endpoint: mean survival time, dose: 400.0 mg/kg/injection, schedule: Q01DX009 (ip), vehicle: saline with Tween-80.

Where “and” joins values, the source holds several entries; their conditions need not be identical. Equal values may be shown once. Toxic doses and inconclusive results are not listed.

On to `CCSc1ccc2c(cc1=O)C(NC(=O)NC)CCc1cc(OC)c(OC)c(OC)c1-2` (stereo not given), for which the T/C was 116 % of control (endpoint: mean survival time, dose: 25.0 mg/kg/injection, schedule: Q01DX009 (ip), vehicle: Klucel (hydroxypropylcellulose) (HPC)); 112 % of control (endpoint: mean survival time, dose: 50.0 mg/kg/injection, schedule: Q01DX009 (ip), vehicle: Klucel (hydroxypropylcellulose) (HPC)); 92 % of control under setting [1].

Consider `BrCc1c(CBr)c(CBr)c(CBr)c(CBr)c1CBr`, for which the T/C by setting is: under setting [1], 98 % of control; under setting [2], 94 % of control; under setting [3], 97 % of control; under setting [4], 96 % of control; (endpoint: mean survival time, dose: 400.0 mg/kg/injection, schedule: Q01DX009 (ip), vehicle: Klucel (hydroxypropylcellulose) (HPC)) 97 % of control; under setting [5], 96 % of control.

Consider `CCN1CCN2C(=O)OCC2C1` (stereo not given), for which the T/C (endpoint: mean survival time, dose: 100.0 mg/kg/injection, schedule: Q04DX003 (sc), vehicle: olive oil, sesame oil, peanut oil) was 94 % of control; the T/C (endpoint: mean survival time, dose: 200.0 mg/kg/injection, schedule: Q04DX003 (sc), vehicle: olive oil, sesame oil, peanut oil) is 97 % of control; the T/C (endpoint: mean survival time, dose: 400.0 mg/kg/injection, schedule: Q04DX003 (sc), vehicle: olive oil, sesame oil, peanut oil) was 92 % of control.

Turning to `CN(Cc1ccccc1)c1ccccc1`, the T/C by setting is: under setting [6], 97 % of control; under setting [7], 97 % of control; under setting [8], 97 % of control; under setting [9], 97 % of control.

Regarding `CC(=NCc1ccccc1)Nc1ccc(NC(=O)c2ccc(C(=O)Nc3ccc(NC(C)=NCc4ccccc4)cc3)cc2)cc1`, the T/C (endpoint: mean survival time, dose: 15.0 mg/kg/injection, schedule: Q01DX Z (ip), vehicle: carboxymethylcellulose (CMC)) was 92 % of control; the T/C (endpoint: mean survival time, dose: 30.0 mg/kg/injection, schedule: Q01DX Z (ip), vehicle: carboxymethylcellulose (CMC)) was 103 % of control; the T/C (endpoint: mean survival time, dose: 60.0 mg/kg/injection, schedule: Q01DX Z (ip), vehicle: carboxymethylcellulose (CMC)) is 95 % of control; the T/C (endpoint: mean survival time, dose: 120.0 mg/kg/injection, schedule: Q01DX Z (ip), vehicle: carboxymethylcellulose (CMC)) was 97 % of control.

In the case of `Cc1ccc(CS)cc1`, the T/C under setting [1] was 101 % of control; the T/C under setting [2] was 97 % of control; the T/C under setting [3] was 93 % of control; the T/C under setting [4] was 97 % of control; the T/C under setting [5] was 92 % of control.

Regarding `CCN(CC)c1ccc(NC(=S)Nc2ccc(N(CC)CC)cc2)cc1`, the T/C was 100 % of control (endpoint: mean survival time, dose: 75.0 mg/kg/injection, schedule: Q01DX009 (ip), vehicle: Klucel (hydroxypropylcellulose) (HPC)); 106 % of control (endpoint: mean survival time, dose: 75.0 mg/kg/injection, schedule: Q04DX003 (ip), vehicle: saline); 101 % of control (endpoint: mean survival time, dose: 150.0 mg/kg/injection, schedule: Q01DX009 (ip), vehicle: Klucel (hydroxypropylcellulose) (HPC)); 103 % of control (endpoint: mean survival time, dose: 150.0 mg/kg/injection, schedule: Q04DX003 (ip), vehicle: saline); 94 % of control (endpoint: mean survival time, dose: 300.0 mg/kg/injection, schedule: Q01DX009 (ip), vehicle: Klucel (hydroxypropylcellulose) (HPC)); 93 % of control (endpoint: mean survival time, dose: 300.0 mg/kg/injection, schedule: Q04DX003 (ip), vehicle: saline).

As to `O=C(Nc1ccc(Cl)c([N+](=O)[O-])c1)OCCOc1ccccc1`, the T/C was 101 % of control under setting [10]; 110 % of control (endpoint: mean survival time, dose: 100.0 mg/kg/injection, schedule: Q04DX003 (ip), vehicle: saline with Tween-80); 110 % of control under setting [11]; 105 % of control (endpoint: mean survival time, dose: 200.0 mg/kg/injection, schedule: Q04DX003 (ip), vehicle: saline with Tween-80); 106 % of control under setting [12]; 100 % of control (endpoint: mean survival time, dose: 400.0 mg/kg/injection, schedule: Q04DX003 (ip), vehicle: saline with Tween-80).

With `O=C(CCl)N(O)c1ccc(/C=C/c2ccccc2)cc1`, the T/C reads like this: (endpoint: mean survival time, dose: 100.0 mg/kg/injection, schedule: Q01DX001 (ip), vehicle: carboxymethylcellulose (CMC)) 90 % of control; (endpoint: mean survival time, dose: 200.0 mg/kg/injection, schedule: Q01DX001 (ip), vehicle: carboxymethylcellulose (CMC)) 88 % of control; (endpoint: mean survival time, dose: 400.0 mg/kg/injection, schedule: Q01DX001 (ip), vehicle: carboxymethylcellulose (CMC)) 95 % of control.

`NC(Cc1c[nH]c2ccccc12)C(=O)OCc1ccccc1` (stereo not given): the T/C (endpoint: mean survival time, dose: 6.25 mg/kg/injection, schedule: Q01DX009 (ip), vehicle: water) was 101 % of control; the T/C (endpoint: mean survival time, dose: 12.5 mg/kg/injection, schedule: Q01DX009 (ip), vehicle: water) is 99 % of control; the T/C (endpoint: mean survival time, dose: 25.0 mg/kg/injection, schedule: Q01DX009 (ip), vehicle: water) was 98 % of control and 106 % of control; the T/C (endpoint: mean survival time, dose: 50.0 mg/kg/injection, schedule: Q01DX009 (ip), vehicle: water) is 107 % of control; the T/C under setting [10] was 104 % of control; the T/C (endpoint: mean survival time, dose: 100.0 mg/kg/injection, schedule: Q01DX009 (ip), vehicle: water) is 97 % of control and 86 % of control. Further, the T/C is 104 % of control under setting [11] and 93 % of control under setting [12].

As for `CC(=O)C(C)CCOC1(C)OCCC1C` (stereo not given), the T/C reads like this: under setting [6], 103 % of control; under setting [7], 116 % of control; under setting [8], 100 % of control; under setting [9], 103 % of control.

For the compound `CNC(=O)OC(C)CN(c1ccccc1)c1ccccc1` (stereo not given), the T/C is 98 % of control under setting [6], 104 % of control under setting [7], 98 % of control under setting [8] and 102 % of control under setting [9].

In the case of `CC[n+]1cccc(NC(=O)c2ccc(NC(=O)c3ccc(C(=O)Nc4ccc(C(=O)Nc5ccc[n+](CC)c5)c(N)c4)cc3)cc2N)c1`, the T/C is, setting by setting: (endpoint: mean survival time, dose: 2.5 mg/kg/injection, schedule: Q01DX015 (ip), vehicle: other) 187 % of control; (endpoint: mean survival time, dose: 5.0 mg/kg/injection, schedule: Q01DX015 (ip), vehicle: other) 264 % of control; (endpoint: mean survival time, dose: 8.0 mg/kg/injection, schedule: Q01DX015 (ip), vehicle: other) 246 % of control; (endpoint: mean survival time, dose: 10.0 mg/kg/injection, schedule: Q01DX015 (ip), vehicle: other) 150 % of control; (endpoint: mean survival time, dose: 22.0 mg/kg/injection, schedule: Q01DX001 (ip), vehicle: other) 156 % of control; (endpoint: mean survival time, dose: 22.0 mg/kg/injection, schedule: Q01DX015 (ip), vehicle: other) 114 % of control. Further, the T/C is 174 % of control (endpoint: mean survival time, dose: 25.0 mg/kg/injection, schedule: Q01DX001 (ip), vehicle: other); 168 % of control (endpoint: mean survival time, dose: 33.0 mg/kg/injection, schedule: Q01DX001 (ip), vehicle: other); 90 % of control (endpoint: mean survival time, dose: 37.0 mg/kg/injection, schedule: Q01DX015 (ip), vehicle: other); 203 % of control (endpoint: mean survival time, dose: 50.0 mg/kg/injection, schedule: Q01DX001 (ip), vehicle: other); 219 % of control (endpoint: mean survival time, dose: 55.0 mg/kg/injection, schedule: Q01DX001 (ip), vehicle: other); 212 % of control (endpoint: mean survival time, dose: 75.0 mg/kg/injection, schedule: Q01DX001 (ip), vehicle: other).

On to `O=C(O)C1CC(O)CN1` (stereo not given), for which the T/C is 110 % of control and 107 % of control (endpoint: mean survival time, dose: 12.5 mg/kg/injection, schedule: Q04DX002 (ip), vehicle: saline); 106 % of control and 97 % of control (endpoint: mean survival time, dose: 25.0 mg/kg/injection, schedule: Q04DX002 (ip), vehicle: saline); 100 % of control and 110 % of control (endpoint: mean survival time, dose: 50.0 mg/kg/injection, schedule: Q04DX002 (ip), vehicle: saline); 102 % of control (endpoint: median survival time, dose: 25.0 mg/kg/injection, schedule: Q01DX009 (ip), vehicle: saline); 103 % of control (endpoint: median survival time, dose: 50.0 mg/kg/injection, schedule: Q01DX009 (ip), vehicle: saline); 108 % of control (endpoint: median survival time, dose: 100.0 mg/kg/injection, schedule: Q01DX009 (ip), vehicle: saline). Moreover, the T/C reads like this: (endpoint: median survival time, dose: 200.0 mg/kg/injection, schedule: Q01DX009 (ip), vehicle: saline) 112 % of control; (endpoint: median survival time, dose: 400.0 mg/kg/injection, schedule: Q01DX009 (ip), vehicle: saline) 114 % of control.

`O=C(O)CN(CC(=O)O)Cc1ccccc1`: the T/C is, setting by setting: (endpoint: mean survival time, dose: 5.0 mg/kg/injection, schedule: Q01DX001 (ip), vehicle: saline) 102 % of control; (endpoint: mean survival time, dose: 10.0 mg/kg/injection, schedule: Q01DX001 (ip), vehicle: saline) 102 % of control; (endpoint: mean survival time, dose: 20.0 mg/kg/injection, schedule: Q01DX001 (ip), vehicle: saline) 100 % of control; (endpoint: mean survival time, dose: 40.0 mg/kg/injection, schedule: Q01DX001 (ip), vehicle: saline) 100 % of control.
